Experimental data published in patent US6737383B1, “Herbicidal oxadiazolidines” (priority 1999, dated 2004).

How the values were obtained:
[1] = tested on: giant foxtail; experiment: Test B pre/postemergence giant foxtail; format: in vivo, Setaria faberii
How it was run: (§1)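 Herbicidal effect was estimated by eye on a ten-point control scale after plants spent twelve to sixteen days in a greenhouse following soil or foliar treatment. Foliar sprays targeted plants at one to four leaves; all doses were formulated in a non-phytotoxic solvent with surfactant.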

[2] = tested on: purple nutsedge; experiment: Test B pre/postemergence purple nutsedge; format: in vivo, Cyperus rotundus
How it was run: as §1

[3] = tested on: blackgrass; experiment: Test B pre/postemergence blackgrass; format: in vivo, Alopecurus myosuroides
How it was run: as §1

[4] = tested on: smallflower flatsedge; experiment: Test B flood test smallflower flatsedge; format: in vivo, Cyperus difformis
How it was run: (§2)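 Plants were grown to the 2-leaf stage before treatment with test chemical, then held in a greenhouse for twelve to sixteen days. Injury was visually rated against untreated controls on a 0–10 scale, where 0 is no effect and 10 is complete control.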

[5] = tested on: velvetleaf; experiment: Test B pre/postemergence velvetleaf; format: in vivo, Abutilon theophrasti; details: Preemergence
How it was run: as §1

[6] = tested on: duck salad; experiment: Test B flood test duck salad; format: in vivo, Heteranthera limosa
How it was run: as §2

[7] = tested on: corn; experiment: Test B pre/postemergence corn; format: in vivo, Zea mays
How it was run: as §1

[8] = tested on: bedstraw; experiment: Test B pre/postemergence bedstraw; format: in vivo, Galium aparine
How it was run: as §1

[9] = tested on: sugar beet; experiment: Test B pre/postemergence sugar beet; format: in vivo, Beta vulgaris; details: Preemergence
How it was run: as §1

[10] = tested on: rape; experiment: Test B pre/postemergence rape; format: in vivo, Brassica napus
How it was run: as §1

[11] = tested on: surinam grass; experiment: Test B pre/postemergence surinam grass; format: in vivo, Brachiaria decumbens
How it was run: as §1

[12] = tested on: crabgrass; experiment: Test B pre/postemergence crabgrass; format: in vivo, Digitaria sanguinalis
How it was run: as §1

[13] = tested on: bamyardgrass; experiment: Test B flood test barnyardgrass; format: in vivo, Echinochloa crus-galli
How it was run: as §2

[14] = tested on: wild oat; experiment: Test B pre/postemergence wild oat; format: in vivo, Avena fatua; details: Preemergence
How it was run: as §1

[15] = tested on: soybean; experiment: Test B pre/postemergence soybean; format: in vivo, Glycine max; details: Preemergence
How it was run: as §1

[16] = tested on: wheat; experiment: Test B pre/postemergence wheat; format: in vivo, Triticum aestivum; details: Preemergence
How it was run: as §1

[17] = tested on: cocklebur; experiment: Test B pre/postemergence cocklebur; format: in vivo, Xanthium strumarium
How it was run: as §1

[18] = tested on: pigweed; experiment: Test B pre/postemergence pigweed; format: in vivo, Amaranthus retroflexus
How it was run: as §1

[19] = tested on: rice; experiment: Test B flood test rice; format: in vivo, Oryza sativa
How it was run: as §2

[20] = tested on: morningglory; experiment: Test B pre/postemergence morningglory; format: in vivo, Ipomoea hederacea
How it was run: as §1

[21] = Preemergence, Rate 31 g/ha, visual rating, scale 0 to 10 (0 no effect, 10 complete control)
[22] = Preemergence, Rate 62 g/ha, scale of 0 to 10 where 0 is no effect and 10 is complete control
[23] = Preemergence, Rate 250 g/ha, scale of 0 to 10 where 0 is no effect and 10 is complete control
[24] = Rate 31 g/ha, Postemergence, scale 0 to 10
[25] = Rate 125 g/ha, Preemergence, scale of 0 to 10 where 0 is no effect and 10 is complete control
[26] = Rate 62 g/ha, Postemergence, scale of 0 to 10 where 0 is no effect and 10 is complete control
[27] = Rate 125 g/ha, Postemergence, scale 0 to 10
[28] = Rate 62 g/ha, headed Pre-emergence (flood test species), scale 0 to 10 (0 no effect, 10 complete control)
[29] = Rate 125 g/ha, Pre-emergence, flood test species, scale 0 to 10 where 0 is no effect and 10 is complete control
[30] = Rate 250 g/ha, Pre-emergence, flood-test species, scale 0 to 10, 0 is no effect, 10 is complete control
[31] = Rate 500 g/ha, Pre-emergence, flood test species, scale 0 to 10 (0 no effect, 10 complete control)
[32] = Rate 31 g/ha, visual rating, scale 0 to 10 (0 no effect, 10 complete control)
[33] = Rate 62 g/ha, scale of 0 to 10 where 0 is no effect and 10 is complete control
[34] = Rate 250 g/ha, scale of 0 to 10 where 0 is no effect and 10 is complete control
[35] = Rate 125 g/ha, scale of 0 to 10 where 0 is no effect and 10 is complete control

C=C(Cn1c(=O)on(C(=O)N(c2ccc(F)cc2)C(C)C)c1=O)C[Si](C)(C)C [Compound 256]
Giant foxtail plant response rating [1, 21]: 0
Giant foxtail plant response rating [1, 22]: 0
Giant foxtail plant response rating [1, 23]: 9
Giant foxtail plant response rating [1, 24]: 0
Giant foxtail plant response rating [1, 25]: 5
Plant response rating (0 to 10; 0 is no effect, 10 is complete control), Giant foxtail ([1]; Rate 250 g/ha, Postemergence): 0
Nutsedge plant response rating [2, 23]: 0
Nutsedge plant response rating [2, 24]: 0
Plant response rating (0 to 10; 0 is no effect, 10 is complete control), Nutsedge ([2]; Rate 250 g/ha, Postemergence): 0
Blackgrass plant response rating [3, 21]: 0
Blackgrass plant response rating [3, 22]: 0
Blackgrass plant response rating [3, 23]: 0
Blackgrass plant response rating [3, 24]: 0
Blackgrass plant response rating [3, 26]: 0
Blackgrass plant response rating [3, 27]: 0
Blackgrass plant response rating [3, 25]: 0
Plant response rating (0 to 10; 0 is no effect, 10 is complete control), Blackgrass ([3]; Rate 250 g/ha, Postemergence): 0
S. Flatsedge plant response rating [4, 28]: 0
S. Flatsedge plant response rating [4, 29]: 0
S. Flatsedge plant response rating [4, 30]: 0
S. Flatsedge plant response rating [4, 31]: 0
Velvetleaf plant response rating [5, 32]: 0
Velvetleaf plant response rating [5, 33]: 0
Velvetleaf plant response rating [5, 34]: 0
Velvetleaf plant response rating [5, 35]: 0
Ducksalad plant response rating [6, 28]: 0
Ducksalad plant response rating [6, 29]: 0
Ducksalad plant response rating [6, 30]: 0
Ducksalad plant response rating [6, 31]: 0
Corn plant response rating [7, 21]: 0
Corn plant response rating [7, 22]: 0
Corn plant response rating [7, 23]: 0
Corn plant response rating [7, 24]: 0
Corn plant response rating [7, 26]: 0
Corn plant response rating [7, 27]: 0
Corn plant response rating [7, 25]: 0
Plant response rating (0 to 10; 0 is no effect, 10 is complete control), Corn ([7]; Rate 250 g/ha, Postemergence): 0
Bedstraw plant response rating [8, 21]: 0
Bedstraw plant response rating [8, 22]: 0
Bedstraw plant response rating [8, 23]: 0
Bedstraw plant response rating [8, 24]: 0
Bedstraw plant response rating [8, 26]: 0
Bedstraw plant response rating [8, 27]: 0
Bedstraw plant response rating [8, 25]: 0
Plant response rating (0 to 10; 0 is no effect, 10 is complete control), Bedstraw ([8]; Rate 250 g/ha, Postemergence): 0
Sugarbeets plant response rating [9, 32]: 0
Sugarbeets plant response rating [9, 33]: 0
Sugarbeets plant response rating [9, 34]: 0
Sugarbeets plant response rating [9, 35]: 0
Rape plant response rating [10, 21]: 0
Rape plant response rating [10, 22]: 0
Rape plant response rating [10, 23]: 0
Rape plant response rating [10, 24]: 0
Rape plant response rating [10, 25]: 0
Plant response rating (0 to 10; 0 is no effect, 10 is complete control), Rape ([10]; Rate 250 g/ha, Postemergence): 2
B. signalgrass plant response rating [11, 21]: 0
B. signalgrass plant response rating [11, 22]: 0
B. signalgrass plant response rating [11, 23]: 0
B. signalgrass plant response rating [11, 24]: 0
B. signalgrass plant response rating [11, 26]: 0
B. signalgrass plant response rating ([11]; Rate 125 g/ha, Postemergence, scale 0 (no effect) to 10 (complete control)): 0
B. signalgrass plant response rating [11, 25]: 0
Plant response rating (0 to 10; 0 is no effect, 10 is complete control), B. signalgrass ([11]; Rate 250 g/ha, Postemergence): 0
Crabgrass plant response rating [12, 21]: 0
Crabgrass plant response rating [12, 22]: 0
Crabgrass plant response rating [12, 23]: 2
Crabgrass plant response rating [12, 24]: 0
Crabgrass plant response rating [12, 25]: 2
Plant response rating (0 to 10; 0 is no effect, 10 is complete control), Crabgrass ([12]; Rate 250 g/ha, Postemergence): 1
Barnyardgrass plant response rating [13, 28]: 0
Barnyardgrass plant response rating [13, 29]: 0
Barnyardgrass plant response rating [13, 30]: 0
Barnyardgrass plant response rating [13, 31]: 0
Wild oats plant response rating [14, 32]: 0
Wild oats plant response rating [14, 33]: 0
Wild oats plant response rating [14, 34]: 0
Wild oats plant response rating [14, 35]: 0
Soybean plant response rating [15, 32]: 0
Soybean plant response rating [15, 33]: 0
Soybean plant response rating [15, 34]: 0
Soybean plant response rating [15, 35]: 0
Wheat plant response rating [16, 32]: 0
Wheat plant response rating [16, 33]: 0
Wheat plant response rating [16, 34]: 0
Wheat plant response rating [16, 35]: 0
Cocklebur plant response rating [17, 21]: 0
Cocklebur plant response rating [17, 22]: 0
Cocklebur plant response rating [17, 23]: 0
Cocklebur plant response rating [17, 24]: 0
Cocklebur plant response rating [17, 26]: 0
Cocklebur plant response rating [17, 27]: 0
Cocklebur plant response rating [17, 25]: 0
Plant response rating (0 to 10; 0 is no effect, 10 is complete control), Cocklebur ([17]; Rate 250 g/ha, Postemergence): 0
Redroot pigweed plant response rating [18, 21]: 0
Redroot pigweed plant response rating [18, 22]: 0
Redroot pigweed plant response rating [18, 23]: 0
Redroot pigweed plant response rating [18, 24]: 0
Redroot pigweed plant response rating [18, 25]: 0
Plant response rating (0 to 10; 0 is no effect, 10 is complete control), Redroot pigweed ([18]; Rate 250 g/ha, Postemergence): 4
Rice plant response rating [19, 28]: 0
Rice plant response rating [19, 29]: 0
Rice plant response rating [19, 30]: 0
Rice plant response rating [19, 31]: 0
Morningglory plant response rating [20, 21]: 0
Morningglory plant response rating [20, 22]: 0
Morningglory plant response rating [20, 23]: 0
Morningglory plant response rating [20, 24]: 6
Morningglory plant response rating [20, 25]: 0
